Experimental findings from PubChem BioAssay AID256 (DTP/NCI, 2004) are described below.

Structures are written as SMILES. Where “and” joins values, the source holds several entries; their conditions need not be identical. Identical values can stand only once. Toxic doses and inconclusive results are not listed.

The subject of the experiment is CD2F1 mice, L1210 leukemia ip, survival T/C. Put plainly: NCI In Vivo Anticancer Drug Screen. Data for tumor model L1210 Leukemia (intraperitoneal) in CD2F1 (CDF1) mice. The conditions noted are these: higher = longer survival. In a few lines:
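Ratio T/C, where T is the treated-group value and C the vehicle-dosed control value, from mice implanted with a transplantable tumor.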

The mark [1] stands for this setting: endpoint: mean survival time, dose: 12.5 mg/kg/injection, schedule: Q01DX009 (ip), vehicle: saline with Tween-80.
[2] abbreviates: endpoint: mean survival time, dose: 25.0 mg/kg/injection, schedule: Q01DX009 (ip), vehicle: saline with Tween-80.
Setting [3] is: endpoint: mean survival time, dose: 50.0 mg/kg/injection, schedule: Q01DX009 (ip), vehicle: saline with Tween-80.
Where [4] appears, read: endpoint: mean survival time, dose: 100.0 mg/kg/injection, schedule: Q01DX009 (ip), vehicle: saline with Tween-80.
[5] abbreviates: endpoint: mean survival time, dose: 100.0 mg/kg/injection, schedule: Q04DX002 (ip), vehicle: saline with Tween-80.
[6] abbreviates: endpoint: mean survival time, dose: 200.0 mg/kg/injection, schedule: Q01DX009 (ip), vehicle: saline with Tween-80.
Where [7] appears, read: endpoint: mean survival time, dose: 200.0 mg/kg/injection, schedule: Q04DX002 (ip), vehicle: saline with Tween-80.
The mark [8] stands for this setting: endpoint: mean survival time, dose: 100.0 mg/kg/injection, schedule: Q04DX003 (ip), vehicle: saline with Tween-80.
[9] abbreviates: endpoint: mean survival time, dose: 200.0 mg/kg/injection, schedule: Q04DX003 (ip), vehicle: saline with Tween-80.
Where [10] appears, read: endpoint: mean survival time, dose: 400.0 mg/kg/injection, schedule: Q04DX003 (ip), vehicle: saline with Tween-80.
The mark [11] stands for this setting: endpoint: mean survival time, dose: 50.0 mg/kg/injection, schedule: Q04DX003 (ip), vehicle: saline with Tween-80.

Consider `O=C(O)COc1ccc(Cl)cc1Cl` (tested in a mixture with another compound), for which the T/C under setting [1] is 89 % of control; the T/C under setting [2] is 94 % of control; the T/C (endpoint: mean survival time, dose: 25.0 mg/kg/injection, schedule: Q04DX002 (ip), vehicle: saline with Tween-80) was 111 % of control; the T/C under setting [3] is 87 % of control and 104 % of control; the T/C (endpoint: mean survival time, dose: 50.0 mg/kg/injection, schedule: Q04DX002 (ip), vehicle: saline with Tween-80) is 121 % of control; the T/C under setting [4] was 101 % of control. Also, the T/C was 99 % of control under setting [5], 93 % of control under setting [6] and 96 % of control under setting [7].

For `O=C(c1ccccc1)c1cc2ccccc2o1`, the T/C (endpoint: mean survival time, dose: 50.0 mg/kg/injection, schedule: Q01DX009 (ip), vehicle: saline + alcohol) was 102 % of control; the T/C (endpoint: mean survival time, dose: 100.0 mg/kg/injection, schedule: Q01DX009 (ip), vehicle: saline + alcohol) was 105 % of control; the T/C (endpoint: mean survival time, dose: 200.0 mg/kg/injection, schedule: Q01DX009 (ip), vehicle: saline + alcohol) is 93 % of control.

As for `CC(=O)C[n+]1ccccc1Sc1ccc(Cl)cc1`, the T/C runs as follows: (endpoint: median survival time, dose: 12.5 mg/kg/injection, schedule: Q01DX005 (ip), vehicle: saline with Tween-80) 100 % of control; (endpoint: median survival time, dose: 25.0 mg/kg/injection, schedule: Q01DX005 (ip), vehicle: saline with Tween-80) 101 % of control; (endpoint: median survival time, dose: 50.0 mg/kg/injection, schedule: Q01DX005 (ip), vehicle: saline with Tween-80) 97 % of control; (endpoint: median survival time, dose: 100.0 mg/kg/injection, schedule: Q01DX005 (ip), vehicle: saline with Tween-80) 107 % of control.

For `CN1C2C=CC(=O)C1C1C(=O)N(c3ccccc3)C(=O)C12` (centres undefined), the T/C was 93 % of control (endpoint: median survival time, dose: 12.5 mg/kg/injection, schedule: Q01DX005 (ip), vehicle: Klucel (hydroxypropylcellulose) (HPC)); 98 % of control (endpoint: median survival time, dose: 25.0 mg/kg/injection, schedule: Q01DX005 (ip), vehicle: Klucel (hydroxypropylcellulose) (HPC)); 93 % of control (endpoint: median survival time, dose: 50.0 mg/kg/injection, schedule: Q01DX005 (ip), vehicle: Klucel (hydroxypropylcellulose) (HPC)); 94 % of control (endpoint: median survival time, dose: 100.0 mg/kg/injection, schedule: Q01DX005 (ip), vehicle: Klucel (hydroxypropylcellulose) (HPC)); 95 % of control (endpoint: median survival time, dose: 200.0 mg/kg/injection, schedule: Q01DX005 (ip), vehicle: Klucel (hydroxypropylcellulose) (HPC)).

Turning to `CC(C)OC(=O)Nc1cccc(Cl)c1F`, the T/C reads like this: (endpoint: mean survival time, dose: 100.0 mg/kg/injection, schedule: Q01DX001 (ip), vehicle: saline with Tween-80) 96 % of control; (endpoint: mean survival time, dose: 200.0 mg/kg/injection, schedule: Q01DX001 (ip), vehicle: saline with Tween-80) 95 % of control; (endpoint: mean survival time, dose: 400.0 mg/kg/injection, schedule: Q01DX001 (ip), vehicle: saline with Tween-80) 96 % of control.

Turning to `C(=N\N(c1ccccc1)c1ccccc1)/c1ccc(/C=N/N(c2ccccc2)c2ccccc2)cc1`, the T/C was 97 % of control (endpoint: mean survival time, dose: 100.0 mg/kg/injection, schedule: Q04DX003 (ip), vehicle: Klucel (hydroxypropylcellulose) (HPC)); 95 % of control (endpoint: mean survival time, dose: 200.0 mg/kg/injection, schedule: Q04DX003 (ip), vehicle: Klucel (hydroxypropylcellulose) (HPC)); 95 % of control (endpoint: mean survival time, dose: 400.0 mg/kg/injection, schedule: Q04DX003 (ip), vehicle: Klucel (hydroxypropylcellulose) (HPC)).

Regarding `c1ccc(NC(Nc2ccccn2)c2ccncc2)nc1`, the T/C runs as follows: (endpoint: mean survival time, dose: 54.25 mg/kg/injection, schedule: Q04DX003 (ip), vehicle: saline with Tween-80) 97 % of control; under setting [8], 102 % of control; (endpoint: mean survival time, dose: 108.5 mg/kg/injection, schedule: Q04DX003 (ip), vehicle: saline with Tween-80) 103 % of control; under setting [9], 108 % of control; (endpoint: mean survival time, dose: 217.0 mg/kg/injection, schedule: Q04DX003 (ip), vehicle: saline with Tween-80) 102 % of control; under setting [10], 110 % of control. Also, the T/C (endpoint: mean survival time, dose: 434.0 mg/kg/injection, schedule: Q04DX003 (ip), vehicle: saline with Tween-80) was 100 % of control and the T/C (endpoint: mean survival time, dose: 600.0 mg/kg/injection, schedule: Q04DX003 (ip), vehicle: saline with Tween-80) was 113 % of control.

As to `CC1c2ccccc2CC2(C)CN12` (centres undefined), the T/C (endpoint: mean survival time, dose: 75.0 mg/kg/injection, schedule: Q01DX001 (ip), vehicle: saline) is 103 % of control; the T/C (endpoint: mean survival time, dose: 150.0 mg/kg/injection, schedule: Q01DX001 (ip), vehicle: saline) was 101 % of control; the T/C (endpoint: mean survival time, dose: 300.0 mg/kg/injection, schedule: Q01DX001 (ip), vehicle: saline) is 97 % of control.

`N#CCCCN1CCCCCC1`: the T/C under setting [8] was 97 % of control.

As for `CC(O)(CCc1ccccc1)CC(O)(C(F)(F)F)C(F)(F)F` (centres undefined), the T/C was 96 % of control (endpoint: mean survival time, dose: 100.0 mg/kg/injection, schedule: Q01DX009 (ip), vehicle: other); 97 % of control under setting [4]; 102 % of control (endpoint: mean survival time, dose: 200.0 mg/kg/injection, schedule: Q01DX009 (ip), vehicle: other); 102 % of control under setting [6]; 98 % of control (endpoint: mean survival time, dose: 400.0 mg/kg/injection, schedule: Q01DX009 (ip), vehicle: other); 108 % of control (endpoint: mean survival time, dose: 400.0 mg/kg/injection, schedule: Q01DX009 (ip), vehicle: saline with Tween-80).

For `N#CC(NCc1ccccc1)c1ccc2c(c1)OCO2` (centres undefined), the T/C under setting [3] was 98 % of control, the T/C under setting [4] is 90 % of control, the T/C under setting [8] was 99 % of control and the T/C under setting [9] is 108 % of control.

Regarding `O=C1C2CCCC3CCCC(C(=O)N1NC1CCCCC1)C32` (centres undefined), the T/C reads like this: under setting [1], 96 % of control; under setting [2], 89 % of control; under setting [3], 86 % of control; under setting [4], 88 % of control.

For the compound `C=CCCCCCCCCC(=O)N(CCOC)CCOC`, the T/C is 93 % of control under setting [8], 94 % of control under setting [9] and 98 % of control under setting [10].

For the compound `CC(C)(C)OC(=O)NC(CCC(=O)OCc1ccccc1)C(=O)O` (centres undefined) (tested in a mixture with another compound), the T/C under setting [2] was 91 % of control; the T/C under setting [4] is 96 % of control and 98 % of control.

On to `CO[C@@]12[C@@H]3N[C@@H]3CN1C1=C(C(=O)C(Nc3ccc(O)cc3C)=C(C)C1=O)[C@@H]2COC(N)=O`, for which the T/C is, setting by setting: (endpoint: mean survival time, dose: 1.5 mg/kg/injection, schedule: Q01DX001 (ip), vehicle: water) 119 % of control and 111 % of control; (endpoint: mean survival time, dose: 3.0 mg/kg/injection, schedule: Q01DX001 (ip), vehicle: water) 122 % of control and 111 % of control; (endpoint: mean survival time, dose: 6.0 mg/kg/injection, schedule: Q01DX001 (ip), vehicle: water) 120 % of control and 122 % of control; (endpoint: mean survival time, dose: 12.0 mg/kg/injection, schedule: Q01DX001 (ip), vehicle: water) 120 % of control.

Regarding `CCCCCCCC(=O)OCC(=O)[C@]1(O)Cc2c(O)c3c(c(O)c2[C@@H](OC2CC(N)C(O)C(C)O2)C1)C(=O)c1c(OC)cccc1C3=O` (some centres undefined), the T/C was 117 % of control (endpoint: mean survival time, dose: 0.5 mg/kg/injection, schedule: Q01DX009 (ip), vehicle: water); 153 % of control (endpoint: mean survival time, dose: 2.0 mg/kg/injection, schedule: Q01DX009 (ip), vehicle: saline sonified); 211 % of control (endpoint: mean survival time, dose: 2.0 mg/kg/injection, schedule: Q01DX009 (ip), vehicle: saline with Tween-80); 151 % of control (endpoint: mean survival time, dose: 2.0 mg/kg/injection, schedule: Q01DX009 (ip), vehicle: water); 164 % of control (endpoint: mean survival time, dose: 3.0 mg/kg/injection, schedule: Q04DX003 (ip), vehicle: saline with Tween-80); 90 % of control (endpoint: mean survival time, dose: 8.0 mg/kg/injection, schedule: Q01DX009 (ip), vehicle: saline with Tween-80). In addition, the T/C by setting is: (endpoint: mean survival time, dose: 20.0 mg/kg/injection, schedule: Q01DX001 (ip), vehicle: saline with Tween-80) 161 % of control; (endpoint: mean survival time, dose: 20.0 mg/kg/injection, schedule: Q04DX003 (ip), vehicle: saline with Tween-80) 104 % of control.

For `CCCCNC(C)(C)C(SSC(c1cccs1)C(C)(C)NCCCC)c1cccs1` (centres undefined), the T/C runs as follows: (endpoint: mean survival time, dose: 25.0 mg/kg/injection, schedule: Q04DX003 (ip), vehicle: saline with Tween-80) 97 % of control; under setting [11], 101 % of control; under setting [8], 98 % of control.

For `CCCCN1CCNCC1`, the T/C reads like this: (endpoint: mean survival time, dose: 100.0 mg/kg/injection, schedule: Q04DX003 (ip), vehicle: saline) 93 % of control; (endpoint: mean survival time, dose: 200.0 mg/kg/injection, schedule: Q04DX003 (ip), vehicle: saline) 94 % of control.

For `O=C(O)COc1cc(Cl)c(Cl)cc1Cl` (tested in a mixture with another compound), the T/C is 96 % of control under setting [5] and 114 % of control under setting [7].

For the compound `CC(=O)OC1(/N=[N+](/C)[O-])CCCC1`, the T/C by setting is: under setting [11], 167 % of control; under setting [8], 95 % of control.
